Laboratory results: US11183645B2, “Organic thin film and method for manufacturing organic thin film, organic electroluminescence element, display device, illumination device, organic thin film solar cell, thin film transistor, and coating composition” (NIPPON HOSO KYOKAI, priority 2015, dated 2021)
Read-outs that look alike come from different tables or passages of the source.

Experiment: acid dissociation constant pKa of the first material
Settings: for pKa (H2O): acid dissociation constant in water, first materials of the electron injection layer
Text: In the present invention, the “pKa” usually means the “acid dissociation constant in water”. When the pKa cannot be measured in water, it means the “acid dissociation constant in dimethyl sulfoxide (DMSO)”, and when the pKa cannot be measured even in DMSO, it means the “acid dissociation constant in acetonitrile”. The pKa preferably means the “acid dissociation constant in water”.

Row | pKa (water) | pKa | Compound | pKa (H2O)
1 | 4.88 |  | COc1cccnc1 [3-MeOP, 3-methoxypyridine] | 
2 | 9.7 |  | CN(C)c1ccncc1 [4-DMAP, 4-dimethylaminopyridine] | 
3 |  | ≥ 1 | CN(C)c1ccc2cc3ccc(N(C)C)cc3nc2c1 [AOB, acridine orange] | 
4 |  |  | C1CCC2=NCCCN2CC1 [DBU, 1,8-diazabicyclo[5.4.0]undecene-7] | 12.5
5 |  |  | CN(C)P(=NC(C)(C)C)(N=P(N(C)C)(N(C)C)N(C)C)N(C)C [Phosphazene base P2-t-Bu] | 20
6 |  | ≥ 1 | C1=Cc2ccccc2C1 [indene] | 
